Experimental data: ChEMBL document CHEMBL1150725, “Cytotoxic and antimicrobial alkaloids from the Fijian sponge Xestospongia caycedoi” (J Nat Prod, 1987)
Values after ≈ are worked out from the molar mass of the structure shown.

How the values were obtained:
Staphylococcus aureus = assay: Antimicrobial activity against Staphylococcus aureus at 100 ug/disk; format: functional; conditions: read-out: IZ
L1210 = assay: Cytotoxicity against mouse L1210 cells; format: functional, cell-based

Compound: COC1=C(C)C(=O)c2ccnc(CO)c2C1=O [RENIEROL]
- zone of inhibition at 100 µg/disc (Staphylococcus aureus): 10 mm
- IC50 (L1210): 3 µg/mL (≈ 12.9 µM)
